Laboratory results as given in patent US20140057798A1, “PREDICTION OF DRUG SENSITIVITY OF LUNG TUMORS BASED ON MOLECULAR GENETIC SIGNATURES” (NESTEC S.A., priority 2011, published 2014).
“Also recorded” adds a separate entry of the source. Read-outs that look alike come from different tables or passages of the source.

Assays:
[1] = system: H1975 cells; assay: Inhibition of tumor cell line growth (CellTiter-Glo), H1975; assay type: cell-based, human
[2] = system: H1993 cells; assay: Inhibition of tumor cell line growth (CellTiter-Glo), H1993; assay type: cell-based, human; details: H1993, single inhibitor 0.01-10 μM, 5% FBS, 48 hours
[3] = system: A549 cells; assay: Inhibition of tumor cell line growth (CellTiter-Glo), A549; assay type: cell-based, human; details: A549, single inhibitor 0.01-10 μM, 5% FBS, 48 hours
[4] = system: H460 cells; assay: Inhibition of tumor cell line growth (CellTiter-Glo), H460; assay type: cell-based, human; details: H460, single inhibitor 0.01-10 μM, 5% FBS, 48 hours
[5] = system: eight human lung tumor cell lines; assay: Inhibition of tumor cell growth, panel of lung tumor cell lines; assay type: cell-based
[6] = system: H1650 cells; assay: Inhibition of tumor cell line growth (CellTiter-Glo), H1650; assay type: cell-based, human; details: H1650, single inhibitor 0.01-10 μM, 5% FBS, 48 hours
[7] = system: IGF-1R pathway in A549 cells; assay: Inhibition of activated signaling pathways by kinase inhibitors (CEER assay), A549; assay type: cell-based, human; details: A549, serum-starved overnight, 4-hour treatment, CEER assay (FIG. 2)
Description: (§1) The principal of the CEER™ assay is based on the capture of the target protein by a target-specific antibody printed in two dilutions on the surface of a microarray slide. […] Formation of this complex is initiated by the binding of the first detecting antibody, which is coupled to glucose oxidase (GO), to an epitope on the captured target protein that is different from the epitope recognized by the capture antibody, followed by the binding of a second detecting antibody, which is coupled to horseradish peroxidase (HRP), to a phosphorylated tyrosine (p-Tyr) residue on the target protein. […]
(§2) The capture antibodies against mouse IgG, human epidermal growth factor receptor 1 (Her1), human epidermal growth factor receptor 2 (Her2), human epidermal growth factor receptor 3 (Her3), human hepatocyte growth factor receptor (cMET), human insulin-like growth factor-1 receptor (IGF1R), human stem cell growth factor receptor (cKit), human phosphatidylinositol-3-kinase (PI3K), human Src homology 2 domain-containing protein (SHC) and human cytokeratin (CK), were printed in this order in 10 rows from top to bottom in each slide. […] The relative fluorescence value of the respective reagent blank was subtracted from each sample to give a relative fluorescence unit (RFU) according the number of cells' extract.

[8] = system: IGF-1R pathway in H460 cells; assay: Inhibition of activated signaling pathways by kinase inhibitors (CEER assay), H460; assay type: cell-based, human; details: H460, serum-starved overnight, 4-hour treatment, CEER assay (FIG. 2)
Description: as §1, §2

[9] = system: HCC827 cells; assay: Inhibition of tumor cell line growth (CellTiter-Glo), HCC827; assay type: cell-based, human
[10] = system: H358 cells; assay: Inhibition of tumor cell line growth (CellTiter-Glo), H358; assay type: cell-based, human; details: H358, single inhibitor 0.01-10 μM, 5% FBS, 48 hours
[11] = system: H358 cells; assay: Anchorage-independent growth inhibition (soft agarose colonies), H358; assay type: cell-based, human; details: H358, 0.1 μM and 1 μM, two weeks, agar
Protocol: (§3) The plates were kept at 4° C. for 2 hr to solidify the cell-containing layer. The plates were then incubated at 37° C. in a CO2 incubator with 2 mL of medium containing various concentrations of the kinase inhibitor. The medium with the inhibitor was changed every 3 days.

[12] = system: A549 cells; assay: Anchorage-independent growth inhibition (soft agarose colonies), A549; assay type: cell-based, human; details: A549, 0.1 μM and 1 μM, two weeks, agar
Protocol: as §3

[13] = system: H460 cells; assay: Anchorage-independent growth inhibition (soft agarose colonies), H460; assay type: cell-based, human; details: H460, 0.1 μM and 1 μM, two weeks, agar
Protocol: as §3

[14] = system: H1734 cells; assay: Inhibition of tumor cell line growth (CellTiter-Glo), H1734; details: H1734, single inhibitor 0.01-10 μM, 5% FBS, 48 hours
[15] = system: Her1 and/or Her2 pathway in H1734 cells; details: H1734, serum-starved overnight, 4-hour treatment, CEER assay (FIG. 2)
Description: as §1, §2

[16] = system: H1734 cells; assay: Anchorage-independent growth inhibition (soft agarose colonies), H1734; assay type: cell-based, human; details: H1734, 0.1 μM and 1 μM, two weeks, agar
[17] = system: c-Met pathway in H1993 cells; assay: Inhibition of activated signaling pathways by kinase inhibitors (CEER assay), H1993 c-Met; assay type: cell-based, human; details: H1993, serum-starved overnight, 4-hour treatment, CEER assay (FIG. 2)
Description: as §1, §2

[18] = system: H1993 cells; assay: Anchorage-independent growth inhibition (soft agarose colonies), H1993; assay type: cell-based, human; details: H1993, 0.1 μM and 1 μM, two weeks, agar
Protocol: as §3

[19] = H1975, single inhibitor 0.01-10 μM, 5% FBS, 48 hours

Cn1c(=O)n(-c2ccc(C(C)(C)C#N)cc2)c2c3cc(-c4cnc5ccccc5c4)ccc3ncc21 [BEZ-235]
inhibition of cell proliferation [1, 19]: weakly inhibited | inhibition of cell proliferation [2]: only weakly | inhibition of cell proliferation [3]: inhibited; also recorded: sensitive | inhibition of cell proliferation [4]: inhibited; also recorded: sensitive | inhibition of tumor cell growth across the cell lines tested [5]: effectively inhibited tumor cell growth in most of the cell lines tested, except the H1993 and H1650 cells

CN(C)C/C=C/C(=O)Nc1cc2c(Nc3ccc(F)c(Cl)c3)ncnc2cc1O[C@H]1CCOC1 [BIBW-2992]
inhibition of cell proliferation [1]: potently inhibit the growth; also recorded: moderately inhibited | inhibition of cell proliferation [2]: only weakly | inhibition of cell proliferation [6]: inhibited

Cc1cc(N2CCOCC2)cc2[nH]c(-c3c(NC[C@@H](O)c4cccc(Cl)c4)cc[nH]c3=O)nc12 [BMS-536924]
blocking of activated IGF-1R pathway [7]: able to block | blocking of activated IGF-1R pathway [8]: able to block | inhibition of cell proliferation ([9]; HCC827, single inhibitor 0.01-10 μM, 5% FBS, 48 hours): inhibition of proliferation | inhibition of cell proliferation [1, 19]: able to inhibit the growth | inhibition of cell proliferation [10]: inhibit its proliferation more effectively | inhibition of cell proliferation [3]: inhibited | inhibition of cell proliferation [4]: weakly inhibited | reduction of cell colony size, anchorage-independent growth [11]: reduce cell colony size formation dose-dependently | reduction of cell colony size, anchorage-independent growth [12]: reduce cell colony size formation dose-dependently | reduction of cell colony size, anchorage-independent growth [13]: reduce cell colony size formation dose-dependently

C#Cc1cccc(Nc2ncnc3cc(OCCOC)c(OCCOC)cc23)c1 [Erlotinib]
inhibition of cell proliferation [1, 19]: inhibited | inhibition of cell proliferation [14]: inhibited

CS(=O)(=O)CCNCc1ccc(-c2ccc3ncnc(Nc4ccc(OCc5cccc(F)c5)c(Cl)c4)c3c2)o1 [Lapatinib]
inhibition of cell proliferation [9]: able to inhibit the proliferation | inhibition of cell proliferation [1, 19]: resistant | inhibition of cell proliferation [10]: weakly blocked | blocking of Her1 and/or Her2 pathway activation [15]: activation blocked

O=C(NOC[C@H](O)CO)c1ccc(F)c(F)c1Nc1ccc(I)cc1F [PD-325901]
inhibition of cell proliferation [1, 19]: weakly inhibited | inhibition of cell proliferation [2]: able to block the proliferation | inhibition of cell proliferation [10]: not | inhibition of cell proliferation [3]: not and weakly | inhibition of cell proliferation [4]: not | proliferation of cell colony size, anchorage-independent growth [16]: potently blocked | inhibition of cell proliferation [14]: effective in blocking the growth

C[C@@H](Oc1cc(-c2cnn(C3CCNCC3)c2)cnc1N)c1c(Cl)ccc(F)c1Cl [PF-2341066]
blocking of c-Met pathway activation [17]: blocked | inhibition of cell proliferation [2]: block its proliferation very effectively | inhibition of cell proliferation [10]: not inhibited | large colony formation, anchorage-independent growth [18]: inhibited
